The subject of data set [1] is Homo sapiens. The data set can be described thus: Evaluation of pharmacokinetic parameters for Valproic acid following oral administration of Divalproex Sodium. In kind it is ADME, organism-based. As to conditions: in vivo, dosed compound id 431, dosed compound name VALPROATE SALT, tissue Plasma.
Data set [2] deals with Homo sapiens. The data set can be described thus: Evaluation of pharmacokinetic parameters for Valproic acid following single oral administration of Divalproex Sodium tablets or capsules. In kind it is ADME, organism-based. As to conditions: in vivo, dosed compound id 430, dosed compound name DIVALPROEX SODIUM, regimen Single dose, tissue Plasma.

Among the data in ChEMBL document CHEMBL3832079, “DailyMed|setid=c8806b45-493a-4373-bce7-736e97f9f876 | DIVALPROEX SODIUM - divalproex sodium tablet, delayed release|REMEDYREPACK INC” are CL, t1/2 and Tmax values, retold here.

Molecules are shown by their SMILES. Where “and” joins values, the source holds several entries; their conditions need not be identical. Identical values can stand only once.

For orientation: Tmax means the time at which the peak concentration occurs. For the molecule `CCCC(CCC)C(=O)O` [VALPROIC ACID], the figures for the CL with Homo sapiens [1] (gender female) and with Homo sapiens [1] (gender male) were 4.7 L/hr/1.73 m2 and 4.8 L/hr/1.73 m2, respectively. The t1/2 in the data set with Homo sapiens [1] (gender male and female) is 12 h and 18 h; in the data set on Homo sapiens [1], 10 to 67 h and 7 to 13 h; with Homo sapiens [2] (dose 250 to 1000 mg) it was 9 to 16 h. The Tmax with Homo sapiens [2] (dietary status Fasting) is 3.3 h and 4 h; in the data set with Homo sapiens [2] (dietary status Fed), 4.8 h and 8 h.
